Laboratory results taken from patent US20230123334A1, “AMINO LIPID COMPOUND, PREPARATION METHOD THEREFOR, AND APPLICATION THEREOF” (SHENZHEN SHENXIN BIOTECHNOLOGY CO., LTD., priority 2020, published 2023).

Test system: HEK293 cells
Assay: Preliminary screening as DNA vectors, GFP transfection of HEK293 cells
Format: cell-based
Details: amino lipid/DOPE liposome with 75 ng plasmid DNA (psin-EGFP-IRES-Puro); number of GFP-expressing cells divided by total nuclei (Hoechst)
How it was run: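 First, amino lipid and DOPE were vortexed in sodium acetate buffer (pH 5.6) to form liposomes. Next, these were held with 75 ng EGFP plasmid at room temperature for 30 min. Finally, HEK293 cells were added, cultured at 37° C., Hoechst-stained, and GFP+/total nuclei scored by imaging.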

SMILES	Absolute DNA transfection efficiency in HEK293 cells
CCCCCCCCCCCCNc1nc(NCCN(CC)CC)nc(SCCCCCCCCC)n1 [S9N12 D7]	12.4%
CCCCCCCCCCCCCCCSc1nc(NCCCCCCCCC)nc(NCCN2CCOCC2)n1 [S15N9 D2]	9.7%
CCCCCCCCCCCCSc1nc(NCCCCCCCCCCC)nc(NCC2CCN(C)CC2)n1 [S12N11 D10]	19.6%
CCCCCCCCCCCCCCCSc1nc(NCCCCCCCCC)nc(NCCCN(C)C)n1 [S15N9 D6]	23.1%
CCCCCCCCCCCCCCSc1nc(NCCCCCCCCCCCC)nc(NCCCN2CCN(C)CC2)n1 [S14N12 D9]	4.1%
CCCCCCCCCCCCCCCNc1nc(NCCCN2CCN(C)CC2)nc(SCCCCCCCC)n1 [S8N15 D9]	12.4%
CCCCCCCCCCSc1nc(NCCCN(C)C)nc(SCCCCCC)n1 [S6S10 D6]	20.9%
CCCCCCCCNc1nc(NCCN(CC)CC)nc(SCCCCCCC)n1 [S7N8 D7]	26.8%
CCCCCCCCCCCCCCCCNc1nc(NCCCN2CCOCC2)nc(SCCCCCCCCCCC)n1 [S11N16 D8]	0.4%
CCCCCCCCCCCCCCCCNc1nc(NCC2CCN(C)CC2)nc(SCCCCCCCCC)n1 [S9N16 D10]	21.8%
CCCCCCCCCCCCCCCCNc1nc(NCCCN2CCN(C)CC2)nc(SCCCCCCC)n1 [S7N16 D9]	12.9%
CCCCCCCCCCCCNc1nc(NCCN2CCCC2)nc(SCCCCCCC)n1 [S7N12 D3]	17.4%
CCCCCCCCCCCCNc1nc(NCCN2CCCCC2)nc(SCCCCCCC)n1 [S7N12 D4]	9.7%
CCCCCCCCCCSc1nc(NCCN2CCOCC2)nc(SCCCCCCCC)n1 [S8S10 D2]	18.8%
CCCCCCCCCCCCCCCSc1nc(NCCCCCC)nc(NCCCN2CCOCC2)n1 [S15N6 D8]	19.8%
CCCCCCCCCCCCCCCNc1nc(NCCN(C)C)nc(SCCCCCCC)n1 [S7N15 D1]	19.5%
CCCCCCCCCCSc1nc(NCCCN2CCOCC2)nc(SCCCCCCCC)n1 [S8S10 D8]	13.7%
CCCCCCCCSc1nc(NCCCN2CCN(C)CC2)nc(SCCCCCCCC)n1 [S8S8 D9]	12.1%
CCCCCCCSc1nc(NCCCN2CCN(C)CC2)nc(SCCCCCC)n1 [S6S7 D9]	7.5%
CCCCCCCCSc1nc(NCCCN2CCN(C)CC2)nc(SCCCCCCC)n1 [S7S8 D9]	10.2%
CCCCCCCCCCCCCCCNc1nc(NCCN2CCCCC2)nc(SCCCCCCCCCCC)n1 [S11N15 D4]	9.0%
CCCCCCCCCCCCSc1nc(NCCCN2CCOCC2)nc(SCCCCCCC)n1 [S7S12 D8]	10.9%
CCCCCCCCCCCSc1nc(NCCCCCC)nc(NCCCN2CCOCC2)n1 [S11N6 D8]	13.3%
CCCCCCCCNc1nc(NCCN2CCCC2)nc(SCCCCCCC)n1 [S7N8 D3]	9.3%
CCCCCCCCCCCCCCCSc1nc(NCCCCCCCCC)nc(NCCCN2CCOCC2)n1 [S15N9 D8]	10.1%

SMILES	Absolute DNA transfection efficiency in HEK293 cells
CCCCCCCCCCCCCCSc1nc(NCCCN2CCN(C)CC2)nc(N(CCCCCCCCCCCC)CCCCCCCCCCCC)n1 [S14^2N12 D9]	0.0%
CCCCCCCCCCCCCCCCCCSc1nc(NCCCCCC)nc(NCCN(C)C)n1 [S18N6 D1]	6.9%
CCCCCCCCCCCCCCCCCCNc1nc(NCC2CCN(C)CC2)nc(SCCCCCCCCCCCCCCCC)n1 [S16N18 D10]	1.2%
CCCCCCCCCCCCCCCCSc1nc(NCCN2CCOCC2)nc(SCCCCCCC)n1 [S7S16 D2]	17.6%
CCCCCCCCCCCCCCSc1nc(NCCCCCCCC)nc(NCCCN(C)C)n1 [S14N8 D6]	33.4%
CCCCCCCCCCCCCCCCCCNc1nc(NCCN2CCCCC2)nc(SCCCCCCCCCCC)n1 [S11N18 D4]	4.4%
CCCCCCCCCSc1nc(NCCCCCC)nc(NCCN2CCCC2)n1 [S9N6 D3]	27.0%
CCCCCCCCCCCCCCCCNc1nc(NCCN2CCN(C)CC2)nc(SCCCCCCCCCCCCCCCC)n1 [S16N16 D5]	0.5%
CCCCCCCCCCCCSc1nc(NCCCN(C)C)nc(SCCCCCCC)n1 [S7S12 D6]	11.7%
CCCCCCCCCCCCCCCSc1nc(NCCCCCCCCC)nc(NCCN2CCCCC2)n1 [S15N9 D4]	4.5%
CCCCCCCCCCCCCNc1nc(NCCN(CC)CC)nc(SCCCCCCCC)n1 [S8N13 D7]	8.9%
CCCCCCCCCCCCCCCCCCNc1nc(NCCN(C)C)nc(SCCCCCCCCCCCCCCCCCC)n1 [S18N18 D1]	0.1%
CCCCCCCCCCSc1nc(NCCCN2CCN(C)CC2)nc(SCCCCCC)n1 [S6S10 D9]	7.9%
CCCCCCCCCNc1nc(NCCN(CC)CC)nc(SCCCCCCCCC)n1 [S9N9 D7]	49.8%
CCCCCCCCSc1nc(NCCN2CCCC2)nc(SCCCCCCCC)n1 [S8S8 D3]	10.4%
CCCCCCCCCCCCCCCCCCNc1nc(NCCCN2CCOCC2)nc(SCCCCCC)n1 [S6N18 D8]	8.1%
CCCCCCCCCCCCCNc1nc(NCCCN2CCOCC2)nc(SCCCCCCCCCCCC)n1 [S12N13 D8]	0.0%
CCCCCCCCCCCCCCCCSc1nc(NCCCN(C)C)nc(SCCCCCC)n1 [S6S16 D6]	0.4%
CCCCCCCCCCCNc1nc(NCCN(C)C)nc(SCCCCCCCCC)n1 [S9N11 D1]	35.3%
CCCCCCCCCCCCSc1nc(NCCN2CCN(C)CC2)nc(SCCCCCCC)n1 [S7S12 D5]	9.6%
CCCCCCCNc1nc(NCCN(CC)CC)nc(SCCCCCCC)n1 [S7N7 D7]	11.4%
CCCCCCCCCCCCCCSc1nc(NCCCCCCCCCCC)nc(NCC2CCN(C)CC2)n1 [S14N11 D10]	9.0%
CCCCCCCCCCCCCCCCCCSc1nc(NCCCCCCCCCCCCC)nc(NCC2CCN(C)CC2)n1 [S18N13 D10]	0.9%
CCCCCCNc1nc(NCCN2CCCCC2)nc(SCCCCCC)n1 [S6N6 D4]	0.0%
CCCCCCCCCCCCCCCCNc1nc(NCCCN2CCOCC2)nc(SCCCCCCCC)n1 [S8N16 D8]	8.2%

SMILES	Absolute DNA transfection efficiency in HEK293 cells
CCCCCCCCCCCCCCCCNc1nc(NCCN2CCN(C)CC2)nc(SCCCCCCCCCCCC)n1 [S12N16 D5]	0.7%
CCCCCCCCCCSc1nc(NCCCCCCCCC)nc(NCCN(CC)CC)n1 [S10N9 D7]	6.9%
CCCCCCCNc1nc(NCCN2CCCC2)nc(SCCCCCCC)n1 [S7N7 D3]	9.2%
CCCCCCCCCCCCCCSc1nc(NCCN(CC)CC)nc(N(CCCCCCCCCCCC)CCCCCCCCCCCC)n1 [S14^2N12 D7]	0.1%
CCCCCCSc1nc(NCCN(C)C)nc(SCCCCCC)n1 [S6S6 D1]	1.1%
CCCCCCCCCCCCCNc1nc(NCCN2CCCCC2)nc(SCCCCCCCCC)n1 [S9N13 D4]	6.7%
CCCCCCCCCNc1nc(NCCN(CC)CC)nc(SCCCCCCC)n1 [S7N9 D7]	33.2%
CCCCCCCCCSc1nc(NCCN2CCCCC2)nc(SCCCCCC)n1 [S6S9 D4]	1.8%
CCCCCCCCCCCCCCCCSc1nc(NCCCCCCCCCCC)nc(NCC2CCN(C)CC2)n1 [S16N11 D10]	0.0%
CCCCCCCCCCCNc1nc(NCCCN2CCN(C)CC2)nc(SCCCCCCC)n1 [S7N11 D9]	43.9%
CCCCCCCCCCCCCCSc1nc(NCCCCCCCC)nc(NCCN(C)C)n1 [S14N8 D1]	8.9%
CCCCCCCCCCCCNc1nc(NCCN2CCCC2)nc(SCCCCCCCCCCCC)n1 [S12N12 D3]	31.4%
CCCCCCCCCNc1nc(NCCCN2CCOCC2)nc(SCCCCCCCC)n1 [S8N9 D8]	14.8%
CCCCCCCSc1nc(NCCCN2CCN(C)CC2)nc(SCCCCCCC)n1 [S7S7 D9]	7.9%
CCCCCCCCCCCCCCCCCCSc1nc(NCCCCCC)nc(NCCN2CCN(C)CC2)n1 [S18N6 D5]	18.1%
CCCCCCNc1nc(NCCCN2CCN(C)CC2)nc(SCCCCCC)n1 [S6N6 D9]	0.0%
CCCCCCCCCCCCCCCCCCNc1nc(NCCCN(C)C)nc(SCCCCCCCCC)n1 [S9N18 D6]	47.5%
CCCCCCCCCCCCSc1nc(NCCCCCCCC)nc(NCCN(CC)CC)n1 [S12N8 D7]	0.1%
CCCCCCCCCCCCN(CCCCCCCCCCCC)c1nc(NCCN(C)C)nc(SCCCCCCCCC)n1 [S9^2N12 D1]	0.3%
CCCCCCCCCNc1nc(NCCN2CCCC2)nc(SCCCCCCCC)n1 [S8N9 D3]	32.7%
CCCCCCCCCCCCCCCCNc1nc(NCCN2CCCCC2)nc(SCCCCCCCCCCCC)n1 [S12N16 D4]	0.7%
CCCCCCCCCCCCCCCCSc1nc(NCCCCCCCCCCC)nc(NCCCN(C)C)n1 [S16N11 D6]	10.3%
CCCCCCCCCCCCCCCCCCSc1nc(NCCCCCCCCCCCCCCCC)nc(NCC2CCN(C)CC2)n1 [S18N16 D10]	0.1%
